# In publication PMC9661480, “Discovery and Optimization of Indoline-Based Compounds as Dual 5-LOX/sEH Inhibitors: In Vitro and In Vivo Anti-Inflammatory Characterization” (Journal of Medicinal Chemistry, 2022):
# Legend:
# human recombinant sEH = target: T1, human recombinant sEH (Homo sapiens, UniProt P34913); experiment: sEH activity assay (PHOME substrate); assay type: biochemical; conditions: Table 2; human isolated sEH; mean ± SEM
# T1 construct: made in house; host or cells: Sf9 insect cells (recombinant baculovirus)
# T1 sequence (P34913 1-555): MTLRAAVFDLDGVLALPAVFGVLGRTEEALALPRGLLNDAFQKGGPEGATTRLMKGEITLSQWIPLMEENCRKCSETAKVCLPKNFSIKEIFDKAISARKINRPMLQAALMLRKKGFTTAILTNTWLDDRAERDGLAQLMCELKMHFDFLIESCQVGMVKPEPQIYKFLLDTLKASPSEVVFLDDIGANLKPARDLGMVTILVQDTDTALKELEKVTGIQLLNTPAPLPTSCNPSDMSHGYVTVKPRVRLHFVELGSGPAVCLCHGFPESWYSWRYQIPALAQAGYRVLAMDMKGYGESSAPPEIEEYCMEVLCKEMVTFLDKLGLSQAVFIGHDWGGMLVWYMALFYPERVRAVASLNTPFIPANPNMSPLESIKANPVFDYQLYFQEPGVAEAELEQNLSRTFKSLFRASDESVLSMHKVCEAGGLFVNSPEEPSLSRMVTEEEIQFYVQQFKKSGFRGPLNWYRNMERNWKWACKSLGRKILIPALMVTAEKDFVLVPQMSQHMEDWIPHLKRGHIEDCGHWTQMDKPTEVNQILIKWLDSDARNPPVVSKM
# 5-LOX = target: T2, 5-LOX (Homo sapiens, UniProt P09917); experiment: Cell-free 5-LOX activity assay; assay type: biochemical; design: made in house; host or cells: Escherichia coli Bl21 (DE3); conditions: Table 2; human isolated 5-LOX; mean ± SEM
# T2 sequence (P09917 1-674): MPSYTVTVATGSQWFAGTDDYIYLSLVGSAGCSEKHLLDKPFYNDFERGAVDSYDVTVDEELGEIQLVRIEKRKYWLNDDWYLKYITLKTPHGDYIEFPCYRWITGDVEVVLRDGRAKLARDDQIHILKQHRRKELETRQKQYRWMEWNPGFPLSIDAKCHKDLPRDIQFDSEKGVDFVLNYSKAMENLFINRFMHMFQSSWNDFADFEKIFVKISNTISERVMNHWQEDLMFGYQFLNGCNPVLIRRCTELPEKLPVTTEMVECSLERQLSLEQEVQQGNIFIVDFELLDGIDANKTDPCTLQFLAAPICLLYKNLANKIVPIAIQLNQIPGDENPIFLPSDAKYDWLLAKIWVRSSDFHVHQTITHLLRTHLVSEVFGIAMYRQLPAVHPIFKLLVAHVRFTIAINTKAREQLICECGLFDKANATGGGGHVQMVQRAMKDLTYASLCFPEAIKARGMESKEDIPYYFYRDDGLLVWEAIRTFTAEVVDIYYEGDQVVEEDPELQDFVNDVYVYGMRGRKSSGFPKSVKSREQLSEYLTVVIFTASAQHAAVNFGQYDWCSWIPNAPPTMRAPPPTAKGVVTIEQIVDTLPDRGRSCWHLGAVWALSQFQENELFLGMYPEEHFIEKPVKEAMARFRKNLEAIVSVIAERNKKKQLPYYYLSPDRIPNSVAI
# [1] = In vivo plasma levels of 73; conditions: mouse, ip, mean ±SD
IC50 (5-LOX),concentration at 0.5 h ([1]; 0.5 h after 10 mg Kg-1 intraperitoneal),concentration at 1 h ([1]; 1 h after 10 mg Kg-1 intraperitoneal),concentration at 2 h ([1]; 2 h after 10 mg Kg-1 intraperitoneal),concentration at 4 h ([1]; 4 h after 10 mg Kg-1 intraperitoneal),Compound,IC50 (human recombinant sEH)
> 10 µM,–,–,–,–,1-(1-(4-Aminobutyl)indolin-5-yl)-3-neopentylthiourea [compound 51],> 10 µM
–,–,–,–,–,4-(3-(1-(4-Fluorobenzyl)indolin-5-yl)thioureido)benzoic Acid [compound 58],> 10 µM
–,15.4 ± 2.5 ng/mL,12.3 ± 0.9 ng/mL,10.6 ± 0.6 ng/mL,1.1 ± 0.1 ng/mL,"CC(C)(C)CNC(=S)Nc1ccc2c(c1)CCN2Cc1ccc(N=O)cc1 [compound 73, 1-Neopentyl-3-(1-(4-nitrosobenzyl)indolin-5-yl)thiourea]",–
